Laboratory results taken from ChEMBL document CHEMBL1201862, “PubChem BioAssay data set” (2004).
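Values below derive from 48-hour exposures of cells grown in 96-well plates, with endpoints linearly interpolated between the two concentrations bracketing the appropriate inhibition level. GI50 marks 50% less growth.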 Active and inactive are the calls of the source. Rule as the data show it: active = GI50 up to about 1.1 µM and inactive = higher.

What was measured:
Assay in all cases: growth of human tumour cells (NCI), 48 h
SK-MEL-5 = tested on: SK-MEL-5
K562 = tested on: K562
Hs-578T = tested on: Hs-578T
IGROV-1 = tested on: IGROV-1
MOLT-4 = tested on: MOLT-4
UO-31 = tested on: UO-31
MDA-MB-435 = tested on: MDA-MB-435
T47D = tested on: T47D
SF-268 = tested on: SF-268
COLO 205 = tested on: COLO 205
HT-29 = tested on: HT-29
NCI-H460 = tested on: NCI-H460
SN12C = tested on: SN12C
786-0 = tested on: 786-0
BT-549 = tested on: BT-549
HL-60 = tested on: HL-60
SR = tested on: SR
NCI-H226 = tested on: NCI-H226
SNB-19 = tested on: SNB-19
CCRF-CEM = tested on: CCRF-CEM

SMILES	GI50 (SK-MEL-5)	GI50 (K562)	GI50 (Hs-578T)	GI50 (IGROV-1)	GI50 (MOLT-4)	GI50 (UO-31)	GI50 (MDA-MB-435)	GI50 (T47D)	GI50 (SF-268)	GI50 (COLO 205)	GI50 (HT-29)	GI50 (NCI-H460)	GI50 (SN12C)	GI50 (786-0)	GI50 (BT-549)	GI50 (HL-60)	GI50 (SR)	GI50 (NCI-H226)	GI50 (SNB-19)	GI50 (CCRF-CEM)
CC(=O)Nc1ccc(Nc2cc(O)nc(O)n2)cc1	> 100 µM (inactive)	> 100 µM (inactive)	> 100 µM (inactive)	> 100 µM (inactive)	18.2 µM (inactive)	> 100 µM (inactive)	> 100 µM (inactive)	14.1 µM (inactive)	> 100 µM (inactive)	> 100 µM (inactive)	> 100 µM (inactive)	> 100 µM (inactive)	> 100 µM (inactive)	> 100 µM (inactive)	> 100 µM (inactive)	> 100 µM (inactive)	> 100 µM (inactive)	> 100 µM (inactive)	> 100 µM (inactive)	–
CN(C)CCCN1c2ccc3ccccc3c2Sc2cccc(Cl)c21	3.83 µM (inactive)	1.73 µM (inactive)	0.665 µM (active)	1.54 µM (inactive)	2.14 µM (inactive)	2.79 µM (inactive)	1.98 µM (inactive)	2.46 µM (inactive)	5.69 µM (inactive)	1.85 µM (inactive)	2.04 µM (inactive)	1.77 µM (inactive)	6.19 µM (inactive)	2.99 µM (inactive)	15.1 µM (inactive)	1.63 µM (inactive)	–	7.11 µM (inactive)	5.87 µM (inactive)	1.52 µM (inactive)
O=C(O)C/C(=C\c1ccccc1)C(=O)O	> 100 µM (inactive)	31.7 µM (inactive)	> 100 µM (inactive)	> 100 µM (inactive)	> 100 µM (inactive)	> 100 µM (inactive)	> 100 µM (inactive)	> 100 µM (inactive)	> 100 µM (inactive)	> 100 µM (inactive)	> 100 µM (inactive)	> 100 µM (inactive)	> 100 µM (inactive)	> 100 µM (inactive)	> 100 µM (inactive)	> 100 µM (inactive)	–	> 100 µM (inactive)	> 100 µM (inactive)	> 100 µM (inactive)
CCc1n[nH]c(=O)n1/N=C(\C)c1ccccc1	> 100 µM (inactive)	> 100 µM (inactive)	> 100 µM (inactive)	> 100 µM (inactive)	> 100 µM (inactive)	> 100 µM (inactive)	> 100 µM (inactive)	> 100 µM (inactive)	> 100 µM (inactive)	> 100 µM (inactive)	> 100 µM (inactive)	–	> 100 µM (inactive)	> 100 µM (inactive)	> 100 µM (inactive)	> 100 µM (inactive)	–	> 100 µM (inactive)	> 100 µM (inactive)	> 100 µM (inactive)
C[C@]12CC/C(=N\OCCN3CCCCC3)C=C1CCC1C2CC[C@@]2(C)C1CC[C@]2(C)O (stereo not given in full)	16.6 µM (inactive)	5.26 µM (inactive)	8.61 µM (inactive)	11.9 µM (inactive)	2.64 µM (inactive)	11.1 µM (inactive)	2.3 µM (inactive)	13.1 µM (inactive)	13.4 µM (inactive)	8.17 µM (inactive)	2.28 µM (inactive)	5.26 µM (inactive)	15.3 µM (inactive)	5.14 µM (inactive)	10 µM (inactive)	–	–	3.3 µM (inactive)	11.9 µM (inactive)	3.2 µM (inactive)
Cc1ccccc1-n1c(=O)c2ncn(C3CCCO3)c2n(-c2ccccc2C)c1=S (stereo not given)	> 100 µM (inactive)	> 100 µM (inactive)	> 100 µM (inactive)	> 100 µM (inactive)	> 100 µM (inactive)	> 100 µM (inactive)	> 100 µM (inactive)	> 100 µM (inactive)	> 100 µM (inactive)	> 100 µM (inactive)	> 100 µM (inactive)	–	> 100 µM (inactive)	> 100 µM (inactive)	> 100 µM (inactive)	> 100 µM (inactive)	–	> 100 µM (inactive)	> 100 µM (inactive)	> 100 µM (inactive)
O=C(O)c1nc2cc(C(F)(F)F)ccc2nc1Nc1ccc(Cl)c(Cl)c1	17.7 µM (inactive)	14.6 µM (inactive)	14 µM (inactive)	18 µM (inactive)	–	14.4 µM (inactive)	5.12 µM (inactive)	14.1 µM (inactive)	16.8 µM (inactive)	16.6 µM (inactive)	15.3 µM (inactive)	13.5 µM (inactive)	–	15.9 µM (inactive)	11.1 µM (inactive)	–	21.6 µM (inactive)	15.8 µM (inactive)	8.95 µM (inactive)	> 10 µM (inactive)
O=C([O-])C[n+]1ccccc1.c1ccncc1	> 100 µM (inactive)	> 100 µM (inactive)	> 100 µM (inactive)	> 100 µM (inactive)	33.1 µM (inactive)	> 100 µM (inactive)	> 100 µM (inactive)	> 100 µM (inactive)	> 100 µM (inactive)	> 100 µM (inactive)	> 100 µM (inactive)	> 100 µM (inactive)	> 100 µM (inactive)	> 100 µM (inactive)	> 100 µM (inactive)	97.1 µM (inactive)	–	> 100 µM (inactive)	> 100 µM (inactive)	> 100 µM (inactive)
Cc1ccc(N2C(=O)C3c4[nH]c5ccc(C)cc5c4C4CCC(C(C)(C)C)CC4C3C2=O)cc1 (stereo not given)	32.1 µM (inactive)	4.05 µM (inactive)	10.4 µM (inactive)	13.1 µM (inactive)	2.48 µM (inactive)	37.9 µM (inactive)	17.7 µM (inactive)	7.5 µM (inactive)	11.9 µM (inactive)	15.2 µM (inactive)	15.6 µM (inactive)	7.36 µM (inactive)	12.6 µM (inactive)	4.9 µM (inactive)	26.9 µM (inactive)	17.3 µM (inactive)	–	21.6 µM (inactive)	26.5 µM (inactive)	7.59 µM (inactive)
CCN(CC)CCSc1nc2c(c(=N)n1-c1ccccc1)c(=S)n(-c1ccccc1)c(=S)n2-c1ccccc1	3.24 µM (inactive)	0.601 µM (active)	2.58 µM (inactive)	1.64 µM (inactive)	0.194 µM (active)	–	1.85 µM (inactive)	2.61 µM (inactive)	1.67 µM (inactive)	1.66 µM (inactive)	1.77 µM (inactive)	1.91 µM (inactive)	1.73 µM (inactive)	0.441 µM (active)	2.23 µM (inactive)	0.0559 µM (active)	0.257 µM (active)	25.7 µM (inactive)	18.3 µM (inactive)	0.0843 µM (active)
CCOC(=O)C1=CN2C(=N[C@H]3CCCC[C@@H]32)NC1=O	> 100 µM (inactive)	> 100 µM (inactive)	> 100 µM (inactive)	> 100 µM (inactive)	> 100 µM (inactive)	> 100 µM (inactive)	> 100 µM (inactive)	> 100 µM (inactive)	> 100 µM (inactive)	> 100 µM (inactive)	> 100 µM (inactive)	> 100 µM (inactive)	> 100 µM (inactive)	> 100 µM (inactive)	> 100 µM (inactive)	> 100 µM (inactive)	–	> 100 µM (inactive)	> 100 µM (inactive)	> 100 µM (inactive)
Nc1c(S(=O)(=O)O)cc(Nc2cccc(S(=O)(=O)/C=C/S(=O)(=O)O)c2)c2c1C(=O)c1ccccc1C2=O	> 100 µM (inactive)	> 100 µM (inactive)	73.3 µM (inactive)	> 100 µM (inactive)	> 100 µM (inactive)	–	> 100 µM (inactive)	> 100 µM (inactive)	> 100 µM (inactive)	> 100 µM (inactive)	> 100 µM (inactive)	> 100 µM (inactive)	> 100 µM (inactive)	> 100 µM (inactive)	> 100 µM (inactive)	> 100 µM (inactive)	> 100 µM (inactive)	> 100 µM (inactive)	> 100 µM (inactive)	> 100 µM (inactive)
C=C1C(NC)CCC23CC24CCC2(C)C(C(C)=O)C(O)CC2(C)C4CCC13 (stereo not given)	> 100 µM (inactive)	71.3 µM (inactive)	> 100 µM (inactive)	> 100 µM (inactive)	> 100 µM (inactive)	> 100 µM (inactive)	> 100 µM (inactive)	> 100 µM (inactive)	> 100 µM (inactive)	> 100 µM (inactive)	21.9 µM (inactive)	> 100 µM (inactive)	20.4 µM (inactive)	80.5 µM (inactive)	64.3 µM (inactive)	62.7 µM (inactive)	–	> 100 µM (inactive)	> 100 µM (inactive)	54.8 µM (inactive)
Nc1cc(CO)cc(Nc2c3ccccc3nc3ccccc23)c1	17 µM (inactive)	14.2 µM (inactive)	18.3 µM (inactive)	16.9 µM (inactive)	4.5 µM (inactive)	18.4 µM (inactive)	17 µM (inactive)	18.4 µM (inactive)	17.9 µM (inactive)	11.6 µM (inactive)	14.7 µM (inactive)	25.7 µM (inactive)	18.9 µM (inactive)	16.7 µM (inactive)	14.5 µM (inactive)	> 100 µM (inactive)	53 µM (inactive)	18.2 µM (inactive)	–	6.78 µM (inactive)
NC(Cn1ccc(=O)c(O)c1)C(=O)O (stereo not given) [MIMOSINE]	> 100 µM (inactive)	–	> 100 µM (inactive)	> 100 µM (inactive)	72.6 µM (inactive)	> 100 µM (inactive)	> 100 µM (inactive)	> 100 µM (inactive)	> 100 µM (inactive)	> 100 µM (inactive)	> 100 µM (inactive)	> 100 µM (inactive)	> 100 µM (inactive)	> 100 µM (inactive)	> 100 µM (inactive)	81.5 µM (inactive)	49.4 µM (inactive)	> 100 µM (inactive)	> 100 µM (inactive)	33.7 µM (inactive)
